Assays:
Format in all cases: in vitro ADME
P-gp = P-gp (Homo sapiens, UniProt P08183); assay: Substrate potential for P-gp, bidirectional permeability in MDR1-MDCK; settings: for Concentration in the receiver compartment: 5 µM, MDR1-MDCK and MDCK cells, A to B and B to A, Papp and efflux ratio could not be calculated; for as a Substrate: P-gp
Description: In vitro evaluation of the substrate potential of EBO (5 µM) and M3 (5 µM) for P-gp was conducted in single transporter-transfected and non-transfected Madin–Darby canine kidney (MDCK) cells monolayers according to Absorption Systems (Exton, PA, USA) standard operating procedures (SOP). The integrity of each cell monolayer was evaluated by lucifer yellow presence.

OAT1 = biological target: T1, OAT1 (Homo sapiens, UniProt Q4U2R8); assay: Substrate potential in transporter-transfected MDCK cells
T1 construct: host or cells: MDCK
T1 sequence (Q4U2R8 1-563): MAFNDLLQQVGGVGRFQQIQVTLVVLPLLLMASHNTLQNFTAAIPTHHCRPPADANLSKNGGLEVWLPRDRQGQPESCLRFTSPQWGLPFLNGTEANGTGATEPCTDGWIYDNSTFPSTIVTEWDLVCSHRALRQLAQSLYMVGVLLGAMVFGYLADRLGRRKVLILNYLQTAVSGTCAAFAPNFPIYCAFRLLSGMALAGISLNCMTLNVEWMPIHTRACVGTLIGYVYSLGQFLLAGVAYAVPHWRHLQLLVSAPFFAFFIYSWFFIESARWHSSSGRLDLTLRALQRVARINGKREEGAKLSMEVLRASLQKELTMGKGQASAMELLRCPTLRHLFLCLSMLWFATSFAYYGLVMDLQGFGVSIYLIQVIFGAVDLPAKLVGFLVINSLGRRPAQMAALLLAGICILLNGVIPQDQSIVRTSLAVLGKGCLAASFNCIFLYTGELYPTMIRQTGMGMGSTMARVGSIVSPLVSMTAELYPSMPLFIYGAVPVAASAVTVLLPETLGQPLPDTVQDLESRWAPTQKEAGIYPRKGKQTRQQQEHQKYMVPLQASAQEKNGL
Description: (§1) The uptake of a probe substrate of each transporter was conducted in parallel with the test article in separate wells of the same batch of vector control and transporter-transfected cells. Cells were incubated at 37 °C with 5% CO2 with 500 μL of dosing solution for different periods of time.

MATE1 [1] = biological target: T2, MATE1 (Homo sapiens, UniProt Q96FL8); assay: as above
T2 construct: host or cells: MDCK
T2 sequence (Q96FL8 1-570): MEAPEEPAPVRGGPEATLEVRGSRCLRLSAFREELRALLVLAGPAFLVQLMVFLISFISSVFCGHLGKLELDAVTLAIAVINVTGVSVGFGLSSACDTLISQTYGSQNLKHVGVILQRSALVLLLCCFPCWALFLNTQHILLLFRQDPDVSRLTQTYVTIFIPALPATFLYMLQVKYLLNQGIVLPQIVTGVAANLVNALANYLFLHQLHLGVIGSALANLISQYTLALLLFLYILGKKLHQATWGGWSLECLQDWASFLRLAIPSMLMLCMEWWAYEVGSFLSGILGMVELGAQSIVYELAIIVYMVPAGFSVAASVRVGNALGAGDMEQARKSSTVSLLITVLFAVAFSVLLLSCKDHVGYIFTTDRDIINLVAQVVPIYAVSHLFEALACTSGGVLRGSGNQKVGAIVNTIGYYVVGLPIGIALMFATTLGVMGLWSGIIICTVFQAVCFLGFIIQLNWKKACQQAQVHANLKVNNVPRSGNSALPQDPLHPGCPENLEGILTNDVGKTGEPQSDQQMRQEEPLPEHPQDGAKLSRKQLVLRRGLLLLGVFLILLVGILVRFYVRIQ
Description: as §1

OAT3 = biological target: T3, OAT3 (Homo sapiens, UniProt Q8TCC7); assay: as above
T3 construct: host or cells: MDCK
T3 sequence (Q8TCC7 1-542): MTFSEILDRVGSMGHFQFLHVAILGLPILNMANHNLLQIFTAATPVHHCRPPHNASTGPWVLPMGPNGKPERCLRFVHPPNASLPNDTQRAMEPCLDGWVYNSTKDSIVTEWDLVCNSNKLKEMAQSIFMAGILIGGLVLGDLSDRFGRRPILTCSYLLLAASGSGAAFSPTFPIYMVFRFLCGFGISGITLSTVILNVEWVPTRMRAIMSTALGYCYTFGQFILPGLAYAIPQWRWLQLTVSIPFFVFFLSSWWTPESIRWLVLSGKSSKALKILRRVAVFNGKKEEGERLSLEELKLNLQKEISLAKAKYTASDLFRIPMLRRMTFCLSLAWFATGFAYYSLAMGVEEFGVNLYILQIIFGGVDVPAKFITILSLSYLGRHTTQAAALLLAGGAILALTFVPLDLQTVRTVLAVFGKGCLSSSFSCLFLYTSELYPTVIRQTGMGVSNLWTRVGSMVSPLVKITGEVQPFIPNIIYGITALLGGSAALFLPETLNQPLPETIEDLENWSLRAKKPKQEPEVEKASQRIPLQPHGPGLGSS
Description: as §1

OATP1B3 = biological target: T4, OATP1B3 (Homo sapiens, UniProt Q9NPD5); assay: as above
T4 construct: host or cells: MDCK
T4 sequence (Q9NPD5 1-702): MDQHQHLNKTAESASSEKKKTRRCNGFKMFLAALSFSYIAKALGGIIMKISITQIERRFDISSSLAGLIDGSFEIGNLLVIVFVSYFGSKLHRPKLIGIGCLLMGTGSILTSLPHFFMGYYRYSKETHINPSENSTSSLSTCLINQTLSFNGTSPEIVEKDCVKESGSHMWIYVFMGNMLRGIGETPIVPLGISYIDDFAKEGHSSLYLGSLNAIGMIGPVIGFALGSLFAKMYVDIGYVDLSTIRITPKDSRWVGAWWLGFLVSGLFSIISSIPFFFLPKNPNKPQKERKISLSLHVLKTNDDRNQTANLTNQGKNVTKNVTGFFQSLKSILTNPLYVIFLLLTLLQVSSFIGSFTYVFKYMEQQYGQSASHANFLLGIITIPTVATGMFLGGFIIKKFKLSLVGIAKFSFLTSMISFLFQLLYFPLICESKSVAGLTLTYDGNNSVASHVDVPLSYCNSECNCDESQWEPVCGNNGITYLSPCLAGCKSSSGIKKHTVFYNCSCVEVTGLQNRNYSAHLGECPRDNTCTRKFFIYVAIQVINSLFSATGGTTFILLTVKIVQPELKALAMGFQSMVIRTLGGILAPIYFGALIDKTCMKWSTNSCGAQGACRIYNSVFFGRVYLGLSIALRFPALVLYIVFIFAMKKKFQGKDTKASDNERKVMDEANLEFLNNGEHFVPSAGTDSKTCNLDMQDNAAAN
Description: as §1

MATE1 [2] = biological target: T2, MATE1; assay: Transporter inhibition; settings: read-out: as an Inhibitor, IC50

Sequence of P-gp (P08183 whole entry): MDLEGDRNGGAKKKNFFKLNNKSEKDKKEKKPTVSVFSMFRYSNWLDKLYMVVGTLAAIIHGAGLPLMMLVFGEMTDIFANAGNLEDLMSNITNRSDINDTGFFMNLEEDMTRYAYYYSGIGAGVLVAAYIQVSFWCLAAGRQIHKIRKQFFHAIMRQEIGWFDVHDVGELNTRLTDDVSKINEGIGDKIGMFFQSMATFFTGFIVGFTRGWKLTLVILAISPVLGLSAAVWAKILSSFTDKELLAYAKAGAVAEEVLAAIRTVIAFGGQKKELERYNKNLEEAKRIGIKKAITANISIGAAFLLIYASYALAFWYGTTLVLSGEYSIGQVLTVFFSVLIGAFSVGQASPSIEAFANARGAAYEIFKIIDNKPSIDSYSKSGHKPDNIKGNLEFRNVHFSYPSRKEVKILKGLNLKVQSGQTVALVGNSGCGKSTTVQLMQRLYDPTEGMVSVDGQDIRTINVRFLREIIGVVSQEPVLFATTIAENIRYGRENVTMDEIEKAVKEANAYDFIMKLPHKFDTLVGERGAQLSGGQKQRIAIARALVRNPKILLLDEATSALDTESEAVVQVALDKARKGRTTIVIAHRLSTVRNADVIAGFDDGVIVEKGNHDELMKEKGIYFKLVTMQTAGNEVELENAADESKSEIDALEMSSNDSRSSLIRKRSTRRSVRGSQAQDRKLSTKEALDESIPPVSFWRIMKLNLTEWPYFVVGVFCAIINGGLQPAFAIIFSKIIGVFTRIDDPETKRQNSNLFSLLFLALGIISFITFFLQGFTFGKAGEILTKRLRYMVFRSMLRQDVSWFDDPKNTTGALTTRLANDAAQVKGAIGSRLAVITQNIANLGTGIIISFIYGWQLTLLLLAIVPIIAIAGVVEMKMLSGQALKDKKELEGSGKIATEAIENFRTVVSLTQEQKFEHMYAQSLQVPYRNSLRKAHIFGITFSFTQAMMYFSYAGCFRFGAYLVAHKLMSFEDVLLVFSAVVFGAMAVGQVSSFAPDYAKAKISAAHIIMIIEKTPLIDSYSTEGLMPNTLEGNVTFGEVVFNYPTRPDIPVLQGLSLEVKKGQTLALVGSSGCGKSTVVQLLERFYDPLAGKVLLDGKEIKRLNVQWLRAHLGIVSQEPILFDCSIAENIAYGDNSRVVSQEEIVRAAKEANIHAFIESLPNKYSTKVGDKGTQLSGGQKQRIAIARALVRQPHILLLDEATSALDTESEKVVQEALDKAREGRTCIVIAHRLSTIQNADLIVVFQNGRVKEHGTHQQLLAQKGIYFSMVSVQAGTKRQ

| SMILES | Concentration in the receiver compartment (P-gp) | as a Substrate (P-gp) | Influx ratio (OAT1) | as a Substrate (OAT1) | Influx ratio (MATE1 [1]) | as a Substrate (MATE1 [1]) | Influx ratio (OAT3) | as a Substrate (OAT3) | Influx ratio (OATP1B3) | as a Substrate (OATP1B3) | IC50 (MATE1 [2]) |
| --- | --- | --- | --- | --- | --- | --- | --- | --- | --- | --- | --- |
| NC[C@H]1OB(O)c2c(OCCCO)cccc21 [EBO, Epetraborole] | below the lower limit of quantification | No | < 2 | No | < 2 | No | < 2 | No | < 2 | No | > 100 µM |
| NC[C@H]1OB(O)c2c(OCCC(=O)O)cccc21 [M3] | below the lower limit of quantification | No | < 2 | No | < 2 | No | < 2 | No | < 2 | No | > 250 µM |

Reference: article PMC10818931, “In Vitro Evaluation of Drug–Drug Interaction Potential of Epetraborole, a Novel Bacterial Leucyl-tRNA Synthetase Inhibitor” (Pharmaceuticals, 2024)
